Reference: patent US20250163047A1, “HETEROCYCLIC COMPOUNDS, COMPOSITIONS THEREOF, AND METHODS OF TREATMENT THEREWITH” (BeiGene, Ltd., priority 2022, published 2025)

How the values were obtained:
Cbl (aa49-434) = target: T1, Cbl (aa49-434) (Homo sapiens, UniProt P22681); experiment: Co-expressed Cbl with BirA biochemical assay (CBL/E2-Ub binding, HTRF); conditions: 0.6 nM Cbl co-expressed with BirA, read-out: co-express CBL/E2-Ub-binding assay IC50
T1 construct: Cbl (aa49-434, in-house); made in house
T1 sequence (P22681 49-434): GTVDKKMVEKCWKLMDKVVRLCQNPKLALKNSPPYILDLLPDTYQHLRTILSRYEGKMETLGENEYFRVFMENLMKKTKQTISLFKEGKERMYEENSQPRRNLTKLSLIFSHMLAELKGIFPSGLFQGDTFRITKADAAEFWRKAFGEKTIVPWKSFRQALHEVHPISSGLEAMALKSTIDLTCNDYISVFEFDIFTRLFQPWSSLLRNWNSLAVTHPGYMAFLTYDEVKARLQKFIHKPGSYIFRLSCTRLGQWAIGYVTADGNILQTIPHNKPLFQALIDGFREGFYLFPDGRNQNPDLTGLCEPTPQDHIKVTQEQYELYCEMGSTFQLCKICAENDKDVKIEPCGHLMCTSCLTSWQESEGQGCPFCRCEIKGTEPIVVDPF
Text: (§1) The assay in the absence of a Cbl-b/Cbl inhibitor, where phosphorylation of Cbl-b/Cbl by the Src kinase allows UbcH5B-Ub to bind to Cbl-b/Cbl and brings the Bodipy-Fluorescein tagged ubiquitin in proximity to the streptavidin-terbium bound to the N-terminal biotinylated Avi-tagged Cbl-b/Cbl. […] The lack of a FRET signal indicates Cbl-b/Cbl is inhibited by the Cbl-b/Cbl inhibitor.

Cbl-b (aa36-427) = target: T2, Cbl-b (aa36-427) (Homo sapiens, UniProt Q13191); experiment: Co-expressed Cbl-b with BirA biochemical assay (CBLB/E2-Ub binding, HTRF); conditions: 0.6 nM Cbl-b co-expressed with BirA, HTRF; read-out: co-express CBLB/E2-Ub-binding assay IC50
T2 construct: Cbl-b (aa36-427, in-house); made in house
T2 sequence (Q13191 36-427): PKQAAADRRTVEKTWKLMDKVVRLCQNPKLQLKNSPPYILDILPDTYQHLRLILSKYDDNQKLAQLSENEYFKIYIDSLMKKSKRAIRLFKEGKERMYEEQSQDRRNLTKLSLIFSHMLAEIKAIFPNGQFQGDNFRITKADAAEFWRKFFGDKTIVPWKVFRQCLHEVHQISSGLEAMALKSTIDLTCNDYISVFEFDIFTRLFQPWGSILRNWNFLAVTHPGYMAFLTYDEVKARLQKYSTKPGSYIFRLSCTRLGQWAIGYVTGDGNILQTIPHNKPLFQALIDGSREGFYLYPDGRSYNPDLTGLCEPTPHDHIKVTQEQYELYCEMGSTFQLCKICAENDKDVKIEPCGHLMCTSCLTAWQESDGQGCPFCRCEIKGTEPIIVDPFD
Text: as §1

Row | SMILES | IC50 (Cbl (aa49-434)) [nM] | IC50 (Cbl-b (aa36-427)) [nM]
1 | Cn1cnnc1[C@]1(c2cccc(NC(=O)c3cc(CNC4(C)CCC4)cn4c(Cl)cnc34)c2)C[C@H](C)C1 [Compound A66, 3-chloro-N-(3-((1s, 3s)-3-methyl-1-(4-methyl-4H-1,2,4-triazol-3-yl)cyclobutyl)phenyl)-6-(((1-methylcyclobutyl)amino)methyl)imidazo[1,2-a]pyridine-8-carboxamide] | 3.4 | 1.1
2 | C[C@H]1CCCN(Cc2cc(C(=O)Nc3cccc([C@]4(c5nncn5C)C[C@@H](CC#N)C4)c3)nc3c2NCC3(C)C)C1 [Compound C13, 3,3-dimethyl-7-{[(3S)-3-methylpiperidin-1-yl]methyl}-N-{3-[(1s, 3s)-3-(cyanomethyl)-1-(4-methyl-1,2,4-triazol-3-yl)cyclobutyl]phenyl}-1H,2H-pyrrolo[3,2-b]pyridine-5-carboxamide] | 9.2 | 1.1
3 | C[C@@H]1CN(Cc2cc(C(=O)Nc3cccc([C@]4(c5nncn5C)C[C@@H](C)C4)c3)nc3c2CCC3(C)C)CC[C@@H]1F [Compound C55, 4-(((3R,4S)-4-fluoro-3-methylpiperidin-1-yl)methyl)-7,7-dimethyl-N-(3-((1s,3S)-3-methyl-1-(4-methyl-4H-1,2,4-triazol-3-yl)cyclobutyl)phenyl)-6,7-dihydro-5H-cyclopenta[b]pyridine-2-carboxamide] | 1.9 | 1.1
4 | Cc1cnc2c(C(=O)Nc3cncc([C@]4(c5nncn5C)C[C@@H](C)C4)c3)cc(CN[C@H]3C[C@@H](C)C3)cn12 [Compound A86, 3-methyl-N-(5-((1s, 3s)-3-methyl-1-(4-methyl-4H-1,2,4-triazol-3-yl)cyclobutyl)pyridin-3-yl)-6-((((1s, 3s)-3-methylcyclobutyl)amino)methyl)imidazo[1,2-a]pyridine-8-carboxamide] | 13 | 2.7
5 | Cn1cnnc1[C@]1(c2cccc(NC(=O)c3cc(CNCC4(C)CCC4)cn4c(Cl)cnc34)c2)C[C@H](CC#N)C1 [Compound A35, 3-chloro-N-(3-((1s, 3s)-3-(cyanomethyl)-1-(4-methyl-4H-1,2,4-triazol-3-yl)cyclobutyl)phenyl)-6-((((1-methylcyclobutyl)methyl)amino)methyl)imidazo[1,2-a]pyridine-8-carboxamide] | 13 | 2.2
6 | Cn1cnnc1[C@]1(c2cncc(NC(=O)c3cc(CNCC4CCC4)cn4c(F)cnc34)c2)C[C@H](C)C1 [Compound A71, 6-{[(cyclobutylmethyl)amino]methyl}-3-fluoro-N-{5-[(1r, 3s)-3-methyl-1-(4-methyl-1,2,4-triazol-3-yl)cyclobutyl]pyridin-3-yl}imidazo[1,2-a]pyridine-8-carboxamide] | 0.9 | 0.6
7 | C[C@@H]1CN(Cc2cc(C(=O)Nc3cccc([C@]4(c5nncn5C)C[C@@H](CC#N)C4)c3)nc3cc[nH]c23)C[C@H](C)C1(F)F [Compound B19, N-(3-((1s,3S)-3-(cyanomethyl)-1-(4-methyl-4H-1,2,4-triazol-3-yl)cyclobutyl)phenyl)-7-(((3R,5S)-4,4-difluoro-3,5-dimethylpiperidin-1-yl)methyl)-1H-pyrrolo[3,2-b]pyridine-5-carboxamide] | 77.7 | 10.3
8 | Cn1cnnc1[C@]1(c2cccc(NC(=O)c3cc(CNCC4CCCC4)cn4c(Cl)cnc34)c2)C[C@H](C)C1 [Compound A68, 3-chloro-6-(((cyclopentylmethyl)amino)methyl)-N-(3-((1s, 3s)-3-methyl-1-(4-methyl-4H-1,2,4-triazol-3-yl)cyclobutyl)phenyl)imidazo[1,2-a]pyridine-8-carboxamide] | 2.9 | 0.9
9 | Cn1cnnc1[C@]1(c2cccc(NC(=O)c3cc(CNCC4CCCC4)cn4ccnc34)c2)C[C@H](CC#N)C1 [Compound A26, N-(3-((1s, 3s)-3-(cyanomethyl)-1-(4-methyl-4H-1,2,4-triazol-3-yl)cyclobutyl)phenyl)-6-(((cyclopentylmethyl)amino)methyl)imidazo[1,2-a]pyridine-8-carboxamide] | 6.3 | 1.3
10 | Cn1cnnc1[C@]1(c2cccc(NC(=O)c3cc(CNC4(C)CCC4)cn4ccnc34)c2)C[C@H](CC#N)C1 [Compound A36, N-(3-((1s, 3s)-3-(cyanomethyl)-1-(4-methyl-4H-1,2,4-triazol-3-yl)cyclobutyl)phenyl)-6-(((1-methylcyclobutyl)amino)methyl)imidazo[1,2-a]pyridine-8-carboxamide compound with N-(3-((1s, 3s)-3-(cyanomethyl)-1-(4-methyl-4H-1,2,4-triazol-3-yl)cyclobutyl)phenyl)-6-formylimidazo[1,2-a]pyridine-8-carboxamide (1:1)] | 16 | 1.7
11 | Cn1cnnc1[C@]1(c2cccc(NC(=O)c3cc(CNCC4CCC4)c4c(n3)C(C)(C)CN4)c2)C[C@H](CC#N)C1 [Compound C30, N-(3-((1s, 3s)-3-(cyanomethyl)-1-(4-methyl-4H-1,2,4-triazol-3-yl)cyclobutyl)phenyl)-7-(((cyclobutylmethyl)amino)methyl)-3,3-dimethyl-2,3-dihydro-1H-pyrrolo[3,2-b]pyridine-5-carboxamide] | 3.3 | 1.4
12 | Cc1cnc2c(C(=O)Nc3cncc([C@]4(c5nncn5C)C[C@@H](C)C4)c3)cc(CN[C@@H](C)C3CCC3)cn12 [Compound A63, 6-({[(1S)-1-cyclobutylethyl]amino}methyl)-3-methyl-N-{5-[(1r, 3s)-3-methyl-1-(4-methyl-1,2,4-triazol-3-yl)cyclobutyl]pyridin-3-yl}imidazo[1,2-a]pyridine-8-carboxamide] | 1.8 | 1.1
13 | C[C@H]1CCCN(Cc2cc(C(=O)Nc3cccc([C@]4(c5nncn5C)C[C@@H](CC#N)C4)c3)n3ncnc3c2)C1 [Compound A14, N-(3-((1s,3R)-3-(cyanomethyl)-1-(4-methyl-4H-1,2,4-triazol-3-yl)cyclobutyl)phenyl)-7-(((S)-3-methylpiperidin-1-yl)methyl)-[1,2,4]triazolo[1,5-a]pyridine-5-carboxamide] | 185 | 45.3
14 | C[C@H](NCc1cc(C(=O)Nc2cccc([C@]3(c4nncn4C)C[C@@H](CC#N)C3)c2)nc2c1OCC2(C)C)C1CC1 [Compound C26, N-(3-((1s,3R)-3-(cyanomethyl)-1-(4-methyl-4H-1,2,4-triazol-3-yl)cyclobutyl)phenyl)-7-((((S)-1-cyclopropylethyl)amino)methyl)-3,3-dimethyl-2,3-dihydrofuro[3,2-b]pyridine-5-carboxamide] | 25 | 2.3
15 | Cn1cnnc1[C@]1(c2cccc(NC(=O)c3cc(CNC4(C)CC4)c4[nH]cc(Cl)c4n3)c2)C[C@H](CC#N)C1 [Compound B24, 3-chloro-N-(3-((1s, 3s)-3-(cyanomethyl)-1-(4-methyl-4H-1,2,4-triazol-3-yl)cyclobutyl)phenyl)-7-(((1-methylcyclopropyl)amino)methyl)-1H-pyrrolo[3,2-b]pyridine-5-carboxamide] | 17 | 0.9
16 | C[C@H]1CCCN(Cc2cc(C(=O)Nc3cccc([C@]4(Cc5nncn5C)C[C@@H](C#N)C4)c3)nc3c2NCC32CC2)C1 [Compound C17, N-(3-((1r,3S)-3-cyano-1-((4-methyl-4H-1,2,4-triazol-3-yl)methyl)cyclobutyl)phenyl)-7′-(((S)-3-methylpiperidin-1-yl)methyl)-1′,2′-dihydrospiro[cyclopropane-1,3′-pyrrolo[3,2-b]pyridine]-5′-carboxamide] | 1.1 | 1.5
17 | Cn1cnnc1[C@]1(c2cccc(NC(=O)c3cc(CNCC4CCCC4)cn4c(F)cnc34)c2)C[C@H](C)C1 [Compound A51, 6-(((cyclopentylmethyl)amino)methyl)-3-fluoro-N-(3-((1s, 3s)-3-methyl-1-(4-methyl-4H-1,2,4-triazol-3-yl)cyclobutyl)phenyl)imidazo[1,2-a]pyridine-8-carboxamide] | 4.3 | 1.5
18 | Cn1cnnc1[C@]1(c2cccc(NC(=O)c3cc(CNC4(C)CC4)c4[nH]cc(F)c4n3)c2)C[C@H](CC#N)C1 [Compound B54, N-(3-((1s, 3s)-3-(cyanomethyl)-1-(4-methyl-4H-1,2,4-triazol-3-yl)cyclobutyl)phenyl)-3-fluoro-7-(((1-methylcyclopropyl)amino)methyl)-1H-pyrrolo[3,2-b]pyridine-5-carboxamide] | 12 | 1.2
19 | Cc1cnc2c(C(=O)Nc3cccc([C@]4(c5nncn5C)C[C@@H](CC#N)C4)c3)cc(CN3CCC[C@H](C)C3)cn12 [Compound A10, 3-methyl-6-{[(3S)-3-methylpiperidin-1-yl]methyl}-N-{3-[(1s, 3s)-3-(cyanomethyl)-1-(4-methyl-1,2,4-triazol-3-yl)cyclobutyl]phenyl}imidazo[1,2-a]pyridine-8-carboxamide] | 70.1 | 12
